Experimental data as given in ChEMBL document CHEMBL3232891, “Medicinal attributes of pyrazolo[3,4-d]pyrimidines: a review” (Bioorg Med Chem, 2013).
≈ marks a conversion by molar mass, not a printed value.

How the values were obtained:
NCI-H226 = assay: Growth inhibition of human NCI-H226 cells; format: functional
[1] = Growth inhibition of human NPC-TW01 cells; format: functional
Jurkat = assay: Growth inhibition of human Jurkat cells; format: functional
Enterococcus raffinosus = assay: Antibacterial activity against Enterococcus raffinosus; format: functional
Staphylococcus aureus = assay: Antibacterial activity against Staphylococcus aureus; format: functional
Daoy = assay: Cytotoxicity against human DaOY cells after 48 hrs by MTS assay; format: functional, cell-based
[2] = Cytotoxicity against human Saos2 cells assessed as inhibition of cell viability at 25 uM after 48 hrs by MTT assay relative to control; format: functional; conditions: SAOS-2, 48 h
[3] = Cytotoxicity against human Saos2 cells after 48 hrs by MTT assay; format: functional, cell-based; conditions: SAOS-2, 48 h
HL-60 = assay: Cytotoxicity against human HL60 cells by MTT assay; format: functional, cell-based
[4] = test system: Mycobacterium tuberculosis; assay: Antitubercular activity against Mycobacterium tuberculosis assessed as growth inhibition; format: functional

Work on `Clc1ccc(-c2nn(-c3ccccc3)c3ncncc23)cc1` yielded a GI50 (NCI-H226) of 18 µM, a GI50 [1] of 23 µM and a GI50 (Jurkat) of 36 µM.
With `Nc1n[nH]c2nc(-c3ccccc3)nc(-c3ccc(Cl)cc3)c12` the MIC (Enterococcus raffinosus) was > 300 µM and the MIC (Staphylococcus aureus) was 190 µM (≈ 61.2 µg/mL).
For `COc1ccc(-c2nc(-c3ccccc3)nc3[nH]nc(N)c23)cc1`, the MIC (Enterococcus raffinosus) was 14.2 µM (≈ 4.51 µg/mL) and the MIC (Staphylococcus aureus) was 4.2 µM (≈ 1.33 µg/mL).
Compound `Nc1n[nH]c2nc(-c3ccccc3)nc(-c3ccc(Br)cc3)c12` has an MIC (Enterococcus raffinosus) of 12.3 µM (≈ 4.5 µg/mL) and an MIC (Staphylococcus aureus) of 3.8 µM (≈ 1.39 µg/mL).
With `CCCCNc1ncnc2c1cnn2CC(Cl)c1ccccc1` (configuration not stated) the IC50 (Daoy) was 6.24 µM, the inhibition at 25 µM [2] was 71.1% and the IC50 [3] was 14.6 µM.
In the case of `COc1ccc(-c2nn(-c3ccc4ccccc4n3)c3ncncc23)cc1`, the GI50 (NCI-H226) is reported as 37 µM, the GI50 [1] is reported as 36 µM and the GI50 (Jurkat) is reported as > 100 µM.
Compound `Clc1ccc(-c2nn(-c3ccc4ccccc4n3)c3ncncc23)cc1` has a GI50 (NCI-H226) of 39 µM, a GI50 [1] of 35 µM and a GI50 (Jurkat) of 69 µM.
In the case of `Cc1ccc(-c2nn(-c3ccc4ccccc4n3)c3ncncc23)cc1`, the GI50 (NCI-H226) is reported as 29 µM, the GI50 [1] is reported as 30 µM and the GI50 (Jurkat) is reported as 54 µM.
In the case of `COc1cccc2c1C(=O)c1c(O)c3c(c(O)c1C2=O)C[C@@](O)(C(=O)CO)C[C@@H]3O[C@H]1C[C@H](N)[C@H](O)[C@H](C)O1` [DOXORUBICIN], the IC50 (HL-60) is reported as 0.55 µM.
`Fc1ccc(CNc2ncnc3c2cnn3CC(Cl)c2ccc(Cl)cc2)cc1` (configuration not stated) gave an IC50 (Daoy) of 1.72 µM.
Compound `CSc1nc(Nc2cccc(Cl)c2)c2cnn(CC(Cl)c3ccccc3)c2n1` (configuration not stated) has an inhibition at 25 µM [2] of 93.3% and an IC50 [3] of 11.6 µM.
Compound `Fc1cccc(CNc2ncnc3c2cnn3CC(Cl)c2ccc(Br)cc2)c1` (configuration not stated) has an IC50 (Daoy) of 3.5 µM.
`CC(C)(C)n1nc(-c2ccc(Cl)cc2)c2c(N)ncnc21` showed an inhibition at 25 µM [2] of 85.3% and an IC50 [3] of 8.07 µM.
Compound `Nc1ccc(-c2nc(-c3ccccc3)nc3[nH]nc(N)c23)cc1` has an MIC (Enterococcus raffinosus) of 82.8 µM (≈ 25 µg/mL) and an MIC (Staphylococcus aureus) of 34.5 µM (≈ 10.4 µg/mL).
With `C#CCn1ncc2c(SCc3ccccc3)ncnc21` the “inhibition (INH)” value [4] was >90% and the MIC ([4]; Mycobacterium tuberculosis) was 12.5 µg/mL (≈ 44.6 µM).
